From US8481556B2, “Piperidinone carboxamide azaindane CGRP receptor antagonists” (Merck, Sharp & Dohms, Corp., priority 2010, dated 2013)
Where a name gives a salt, the structure may show the parent alone. Ends that are not written are not given here.

How the values were obtained:
migraine = settings: cited from earlier work
facial blood flow [1] = settings: marmoset, electrical stimulation of the trigeminal ganglion (Doods et al. 2000); cited from earlier work
[2] = biological target: T1, recombinant human CL receptor/RAMP1 (Homo sapiens, UniProt O60894+Q16602); experiment: Recombinant receptor binding assay (125I-hCGRP); settings: exemplary compounds of the invention
T1 construct: expressed in transfected cells; membranes used
Procedure: Human CL receptor (Genbank accession number L76380) was subcloned into the expression vector pIREShyg2 (BD Biosciences Clontech) as a 5′NheI and 3′ PmeI fragment. Human RAMP1 (Genbank accession number AJ001014) was subcloned into the expression vector pIRESpuro2 (BD Biosciences Clontech) as a 5′NheI and 3′NotI fragment. […] Cells were subcultured by treatment with 0.25% trypsin with 0.1% EDTA in HBSS. Stable cell line generation was accomplished by co-transfecting 10 μg of DNA with 30 μg Lipofectamine 2000 (Invitrogen) in 75 cm^2 flasks. CL receptor and RAMP1 expression constructs were co-transfected in equal amounts. Twenty-four hours after transfection the cells were diluted and selective medium (growth medium+300 μg/mL hygromycin and 1 μg/mL puromycin) was added the following day. A clonal cell line was generated by single cell deposition utilizing a FACS Vantage SE (Becton Dickinson). Growth medium was adjusted to 150 μg/mL hygromycin and 0.5 μg/mL puromycin for cell propagation.
The cell suspension was disrupted with a laboratory homogenizer and centrifuged at 48,000 g to isolate membranes. The pellets were resuspended in harvest buffer plus 250 mM sucrose and stored at −70° C. […] Scintillation fluid was added and the plates were counted on a Topcount (Packard).

facial blood flow [3] = settings: rat, trigeminal ganglion stimulation (Escott et al. 1995); cited from earlier work
middle meningeal artery = settings: rats, electrical stimulation of the dura mater, prior administration (Williamson et al. 1997); cited from earlier work

T1 sequence (Q16602 23-461): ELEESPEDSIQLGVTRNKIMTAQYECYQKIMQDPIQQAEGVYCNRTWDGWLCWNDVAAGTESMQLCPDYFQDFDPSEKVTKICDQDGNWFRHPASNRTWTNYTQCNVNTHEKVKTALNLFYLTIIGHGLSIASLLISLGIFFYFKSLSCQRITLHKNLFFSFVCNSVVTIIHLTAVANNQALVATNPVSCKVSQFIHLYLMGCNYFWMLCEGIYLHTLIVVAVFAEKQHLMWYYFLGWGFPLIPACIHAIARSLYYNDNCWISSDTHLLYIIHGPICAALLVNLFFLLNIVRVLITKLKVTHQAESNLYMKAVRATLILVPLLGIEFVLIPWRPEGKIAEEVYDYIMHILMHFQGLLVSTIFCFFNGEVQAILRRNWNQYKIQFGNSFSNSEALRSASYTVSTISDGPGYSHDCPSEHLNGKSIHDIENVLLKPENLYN
T1 sequence (O60894 27-148): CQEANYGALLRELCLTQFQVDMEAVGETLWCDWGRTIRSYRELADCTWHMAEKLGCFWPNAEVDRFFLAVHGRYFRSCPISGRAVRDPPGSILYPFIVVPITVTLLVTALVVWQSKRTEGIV

NCCCC[C@H](NC(=O)[C@@H](Cc1cc(Br)c(O)c(Br)c1)NC(=O)N1CCC(N2Cc3ccccc3NC2=O)CC1)C(=O)N1CCN(c2ccncc2)CC1 [BIBN4096BS]
effectiveness in treating acute attacks of migraine (migraine; clinical trials (Olesen et al. 2004)): effective in treating acute attacks of migraine | effect on increase in facial blood flow (facial blood flow [1]): could be blocked

C[C@@H]1[C@H](c2c(F)ccc(F)c2F)C[C@H](NC(=O)c2cnc3c(c2)C[C@@]2(C3)C(=O)Nc3ncc(F)cc32)C(=O)N1CC(F)(F)F [Example 33, (6S)-5′-Fluoro-N-[(3S,5S,6R)-6-methyl-2-oxo-1-(2,2,2-trifluoroethyl)-5-(2,3,6-trifluorophenyl)piperidin-3-yl]-2′-oxo-1′,2′,5,7-tetrahydrospiro[cyclopenta[b]pyridine-6,3′-pyrrolo[2,3-b]pyridine]-3-carboxamide hydrochloride]
Ki [2]: 0.011 nM

C[C@@H]1[C@H](c2cc(F)cc(F)c2F)C[C@H](NC(=O)c2cnc3c(c2)C[C@@]2(C3)C(=O)Nc3ncc(C#N)cc32)C(=O)N1CC(F)(F)F [Example 34]
Ki [2]: 0.066 nM

O=C(N[C@@H]1CC[C@@H](c2cccc(F)c2F)CN(CC(F)(F)F)C1=O)N1CCC(n2c(=O)[nH]c3ncccc32)CC1 [telcagepant]
antimigraine effectiveness (migraine; phase III clinical trials (Ho et al. 2008; Connor et al. 2009)): shown antimigraine effectiveness

CGRP(8-37) (VTHRLAGLLSRSGGVVKNNFVPTNVGSKAF-NH2; ends and bridges not checked; UniProt P06881 90-119, looked up, fragment) [a peptide CGRP receptor antagonist]
effect on increased facial blood flow (facial blood flow [3]): inhibited | effect on increase of middle meningeal artery diameter (middle meningeal artery): blocked
